{"source": "patent US20130030282A1", "about": "“SYNTHESIS AND CHARACTERIZATION OF NEAR IR FLUORESCENT MAGNETIC AND NON-MAGNETIC ALBUMIN NANOPARTICLES FOR BIOMEDICAL APPLICATIONS” (BAR ILAN UNIVERSITY, priority 2011, published 2013)", "assay": "Stability against photobleaching of free CANIR and NIR fluorescent nanoparticles", "type": "physicochemical", "conditions": "illuminated continuously with a Xenon flash lamp for 20 minutes; λex 800 nm, λem 830 nm; intensity normalized", "experimental": "Photobleaching is the irreversible light-induced destruction of the fluorophore, affected by factors such as oxygen, oxidizing or reducing agents, temperature, exposure time and illumination levels. For photobleaching experiments, the samples were diluted to 0.05M and λex was set at 800 nm and λem at 830 nm. Each of the samples was illuminated continuously, and fluorescence intensity was measured over a period of 20 minutes. The intensity values were normalized.\nPhotobleaching experiments were performed for the free CANIR dye and the CANIR-HSA nanoparticles, in order to examine their photostabillity. For the photobleaching experiments, the samples were diluted to 0.05M and λex was set at 800 nm and λem at 830 nm. Each of the samples was illuminated continuously, and fluorescence intensity was measured over a period of 20 minutes. Intensity values were normalized. […] The encapsulation of the dye probably protects the dye against reactive oxygen species thereby reducing the photobleaching.\nFIG. 2 depicts the photostability of the CANIR-HSA nanoparticles (A) and free CANIR (B) as a function of time. Samples of CANIR containing HSA nanoparticles and free CANIR were illuminated with a Xenon flash lamp for 20 minutes as described above."}
{"smiles": "CC1(C)C(=CC=C2CCCC(C=CC3=[N+](CCCCS(=O)(=O)[O-])c4ccccc4C3(C)C)=C2Sc2ccc(C(=O)O)cc2)N(CCCCS(=O)(=O)[O-])c2ccccc21.[Na+]", "note": "[free CANIR]", "values": [{"measurement": "fluorescence intensity during illumination (photostability)", "result": "decreases significantly"}]}
